Experimental data as given in patent US20250353852A1, “COMPOUNDS AND COMPOSITIONS THAT INHIBIT PIKFYVE” (Kineta, Inc., priority 2021, published 2025).

biological target: full-length human PIKFYVE (Homo sapiens (Human), UniProt Q9Y2I7, L932S/Q1183K/Q995L/S1033A/S696N/T998S); experiment: PIKfyve biochemical assay (ADP-Glo Kinase assay, Carna Biosciences); conditions: class symbols
Description: PIKfyve Biochemical Assay. The biochemical […] inhibition assays were run by Carna Biosciences according to proprietary methodology based on the Promega […] Kinase assay. […] NP_055855.2] was expressed as N-terminal GST-fusion protein (265 kDa) using baculovirus expression system. GST-PIKFYVE was purified by using glutathione sepharose chromatography and used in an ADP-GloTM Kinase assay (Promega). Reactions were set up by adding the test compound solution, substrate solution, ATP solution and kinase solution, each at 4× final concentrations. Reactions were prepared with assay buffer (50 mM MOPS, 1 mM DTT, pH7.2), mixed, and incubated in black 384 well polystyrene plates for 1 hour at room temperature. ADP-Glo^TM reagent was then added for 40 minutes, followed by kinase detection reagent for an additional 40 minutes. The kinase activity was evaluated by detecting relative light units on a luminescence plate reader. […] IC50 values were calculated from concentration vs % inhibition curves by fitting to a four-parameter logistic curve. […] The biochemical […] inhibition assays were run by Carna Biosciences according to proprietary methodology based on the Promega ADP-GloTM Kinase assay. […] GST-PIKFYVE was purified by using glutathione sepharose chromatography and used in an ADP-GIoTM Kinase assay (Promega). Reactions were set up by adding the test compound solution, substrate solution, ATP solution and kinase solution, each at 4× final concentrations. Reactions were prepared with assay buffer (50 mM MOPS, 1 mM DTT, pH7.2), mixed, and incubated in black 384 well polystyrene plates for 1 hour at room temperature. ADP-GIoTM reagent was then added for 40 minutes, followed by kinase detection reagent for an additional 40 minutes. The kinase activity was evaluated by detecting relative light units on a luminescence plate reader. […] IC50 values were calculated from concentration vs % inhibition curves by fitting to a four-parameter logistic curve. […] The same compounds were also tested in both FAB1 and PIKFYVE TDP-43 yeast models.

Sequence of full-length human PIKFYVE (Q9Y2I7 whole entry S696N/L932S/Q995L/T998S/S1033A/Q1183K, the tested form may be a part): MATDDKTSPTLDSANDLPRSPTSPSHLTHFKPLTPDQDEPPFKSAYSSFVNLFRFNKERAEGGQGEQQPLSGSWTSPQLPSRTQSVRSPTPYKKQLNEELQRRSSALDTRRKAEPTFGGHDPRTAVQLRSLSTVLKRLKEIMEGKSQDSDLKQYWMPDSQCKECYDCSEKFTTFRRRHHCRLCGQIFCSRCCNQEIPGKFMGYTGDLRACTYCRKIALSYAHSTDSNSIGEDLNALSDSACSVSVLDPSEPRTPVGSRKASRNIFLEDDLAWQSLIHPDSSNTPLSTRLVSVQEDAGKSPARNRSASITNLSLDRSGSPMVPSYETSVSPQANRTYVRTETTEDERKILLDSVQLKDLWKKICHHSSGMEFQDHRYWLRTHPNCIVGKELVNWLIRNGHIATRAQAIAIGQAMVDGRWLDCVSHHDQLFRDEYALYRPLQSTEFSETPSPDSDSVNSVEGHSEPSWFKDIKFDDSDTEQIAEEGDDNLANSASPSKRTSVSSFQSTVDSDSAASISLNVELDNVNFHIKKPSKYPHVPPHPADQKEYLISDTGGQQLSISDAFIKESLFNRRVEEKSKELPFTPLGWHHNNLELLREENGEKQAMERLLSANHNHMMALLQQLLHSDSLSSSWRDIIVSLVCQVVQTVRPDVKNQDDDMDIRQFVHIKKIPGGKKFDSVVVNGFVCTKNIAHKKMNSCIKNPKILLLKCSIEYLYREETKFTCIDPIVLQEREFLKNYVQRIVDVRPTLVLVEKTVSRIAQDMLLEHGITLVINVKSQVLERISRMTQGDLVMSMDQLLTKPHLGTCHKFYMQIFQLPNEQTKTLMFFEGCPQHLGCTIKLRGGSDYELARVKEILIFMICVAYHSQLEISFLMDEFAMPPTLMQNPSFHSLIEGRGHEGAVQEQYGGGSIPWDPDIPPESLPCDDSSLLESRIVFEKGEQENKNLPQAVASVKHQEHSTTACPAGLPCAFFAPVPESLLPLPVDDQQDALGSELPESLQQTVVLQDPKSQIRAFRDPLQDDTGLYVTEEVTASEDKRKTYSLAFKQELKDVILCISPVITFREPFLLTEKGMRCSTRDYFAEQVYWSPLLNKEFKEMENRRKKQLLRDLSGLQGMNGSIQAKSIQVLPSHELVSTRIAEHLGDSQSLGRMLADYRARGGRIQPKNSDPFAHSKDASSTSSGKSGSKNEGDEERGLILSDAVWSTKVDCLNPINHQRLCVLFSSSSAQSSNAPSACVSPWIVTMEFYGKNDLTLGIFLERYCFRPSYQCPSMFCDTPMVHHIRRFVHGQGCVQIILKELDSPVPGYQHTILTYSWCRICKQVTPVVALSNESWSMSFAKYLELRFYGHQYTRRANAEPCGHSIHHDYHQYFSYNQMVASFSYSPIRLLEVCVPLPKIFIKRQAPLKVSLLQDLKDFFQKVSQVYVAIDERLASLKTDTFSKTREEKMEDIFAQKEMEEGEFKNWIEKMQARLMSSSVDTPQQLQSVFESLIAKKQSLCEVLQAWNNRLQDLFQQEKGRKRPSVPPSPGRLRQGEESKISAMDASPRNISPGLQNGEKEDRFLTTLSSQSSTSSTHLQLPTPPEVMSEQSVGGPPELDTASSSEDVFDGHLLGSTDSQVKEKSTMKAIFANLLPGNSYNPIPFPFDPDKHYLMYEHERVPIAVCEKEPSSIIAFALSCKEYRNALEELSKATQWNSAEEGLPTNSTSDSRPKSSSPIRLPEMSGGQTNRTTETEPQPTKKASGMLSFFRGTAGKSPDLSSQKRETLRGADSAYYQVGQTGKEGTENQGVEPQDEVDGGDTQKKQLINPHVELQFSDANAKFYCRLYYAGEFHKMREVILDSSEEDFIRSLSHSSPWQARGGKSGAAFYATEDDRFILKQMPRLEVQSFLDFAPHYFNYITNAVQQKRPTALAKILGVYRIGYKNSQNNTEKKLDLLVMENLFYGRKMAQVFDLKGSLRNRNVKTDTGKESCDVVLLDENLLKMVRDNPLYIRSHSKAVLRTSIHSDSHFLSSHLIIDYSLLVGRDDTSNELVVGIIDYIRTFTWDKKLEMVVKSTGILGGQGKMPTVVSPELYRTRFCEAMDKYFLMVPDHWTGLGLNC

Row | SMILES | IC50 [nM]
1 | c1cc(-c2cc3nc(-n4ncc5c4CCCC5)cc(N4CCOCC4)n3n2)ccn1 [Compound 86, 4-(2-(pyridin-4-yl)-5-(4,5,6,7-tetrahydro-1H-indazol-1-yl)pyrazolo[1,5-a]pyrimidin-7-yl)morpholine] | 1000 to 10000
2 | c1cc(-c2cc3nc(-n4cc5c(n4)COCC5)cc(N4CCOCC4)n3n2)ccn1 [Compound 87, 2-(7-morpholino-2-(pyridin-4-yl)pyrazolo[1,5-a]pyrimidin-5-yl)-2,4,5,7-tetrahydropyrano[3,4-c]pyrazole] | 1000 to 10000
3 | c1cc(-c2cc3nc(-n4cc5c(n4)CCOC5)cc(N4CCOCC4)n3n2)ccn1 [Compound 89, 2-(7-morpholino-2-(pyridin-4-yl)pyrazolo[1,5-a]pyrimidin-5-yl)-2,4,6,7-tetrahydropyrano[4,3-c]pyrazole] | 100 to 1000
4 | c1ccc(-c2ccn(-c3cc(N4CCOCC4)n4nc(C5CCCO5)cc4n3)n2)cc1 (stereo not drawn) [Compound 90, 4-(5-(3-phenyl-1H-pyrazol-1-yl)-2-(tetrahydrofuran-2-yl)pyrazolo[1,5-a]pyrimidin-7-yl)morpholine] | 10 to 100
5 | c1cncc(-c2ccn(-c3cc(N4CCOCC4)n4nc(C5CCCO5)cc4n3)n2)c1 (stereo not drawn) [Compound 92, 4-(5-(3-(pyridin-3-yl)-1H-pyrazol-1-yl)-2-(tetrahydrofuran-2-yl)pyrazolo[1,5-a]pyrimidin-7-yl)morpholine] | 1000 to 10000
6 | COc1cccc(-c2ccn(-c3cc(N4CCOCC4)n4nc(C5CCCO5)cc4n3)n2)c1 (stereo not drawn) [Compound 93, 4-(5-(3-(3-methoxyphenyl)-1H-pyrazol-1-yl)-2-(tetrahydrofuran-2-yl)pyrazolo[1,5-a]pyrimidin-7-yl)morpholine] | 10 to 100
7 | Fc1cccc(-c2ccn(-c3cc(N4CCOCC4)n4nc(C5CCCO5)cc4n3)n2)c1 (stereo not drawn) [Compound 94, 4-(5-(3-(3-fluorophenyl)-1H-pyrazol-1-yl)-2-(tetrahydrofuran-2-yl)pyrazolo[1,5-a]pyrimidin-7-yl)morpholine] | 100 to 1000
8 | c1cn(-c2cc(N3CCOCC3)n3nc(C4CCCO4)cc3n2)nc1C1CCOCC1 (stereo not drawn) [Compound 95, 4-(5-(3-(tetrahydro-2H-pyran-4-yl)-1H-pyrazol-1-yl)-2-(tetrahydrofuran-2-yl)pyrazolo[1,5-a]pyrimidin-7-yl)morpholine] | > 10000
9 | c1ccc(-n2ccc(-c3cc(N4CCOCC4)n4nc(C5CCCO5)cc4n3)n2)cc1 (stereo not drawn) [Compound 96, 4-(5-(1-phenyl-1H-pyrazol-3-yl)-2-(tetrahydrofuran-2-yl)pyrazolo[1,5-a]pyrimidin-7-yl)morpholine] | 100 to 1000
10 | c1ccc(-c2ccn(-c3cc(N4CCOCC4)n4nc(C5CCOCC5)cc4n3)n2)cc1 [Compound 98, 4-(5-(3-phenyl-1H-pyrazol-1-yl)-2-(tetrahydro-2H-pyran-4-yl)pyrazolo[1,5-a]pyrimidin-7-yl)morpholine] | 100 to 1000
11 | c1c(-n2cc3c(n2)CCOC3)nc2cc(C3CCCO3)nn2c1N1CCOCC1 (stereo not drawn) [Compound 99, 2-(7-morpholino-2-(tetrahydrofuran-2-yl)pyrazolo[1,5-a]pyrimidin-5-yl)-2,4,6,7-tetrahydropyrano[4,3-c]pyrazole] | > 10000
12 | c1nn(-c2cc(N3CCOCC3)n3nc(C4CCCO4)cc3n2)c2c1COCC2 (stereo not drawn) [Compound 100, 1-(7-morpholino-2-(tetrahydrofuran-2-yl)pyrazolo[1,5-a]pyrimidin-5-yl)-1,4,6,7-tetrahydropyrano[4,3-c]pyrazole] | > 10000
13 | NC(=O)c1cc(N2CCOCC2)n2nc(-c3ccncc3)cc2n1 [Compound 102, 7-morpholino-2-(pyridin-4-yl)pyrazolo[1,5-a]pyrimidine-5-carboxamide] | 1000 to 10000
14 | N#Cc1cc(N2CCOCC2)n2nc(-c3ccncc3)cc2n1 [Compound 103, 7-morpholino-2-(pyridin-4-yl)pyrazolo[1,5-a]pyrimidine-5-carbonitrile] | > 10000
15 | O=C(/C=C/c1cc(N2CCOCC2)n2nc(-c3ccncc3)cc2n1)c1ccccc1 [Compound 109, (E)-3-(7-morpholino-2-(pyridin-4-yl)pyrazolo[1,5-a]pyrimidin-5-yl)-1-phenylprop-2-en-1-one] | 1000 to 10000
16 | c1ccc(C2CC(c3cc(N4CCOCC4)n4nc(-c5ccncc5)cc4n3)CN2)cc1 (stereo not drawn) [Compound 112, 4-(5-(5-phenylpyrrolidin-3-yl)-2-(pyridin-4-yl)pyrazolo[1,5-a]pyrimidin-7-yl)morpholine] | 1000 to 10000
17 | O=C(CCCc1cc(N2CCOCC2)n2nc(-c3ccncc3)cc2n1)c1ccccc1 [Compound 113, 4-(7-morpholino-2-(pyridin-4-yl)pyrazolo[1,5-a]pyrimidin-5-yl)-1-phenylbutan-1-one] | 100 to 1000

Row | SMILES | IC50 [nM]
18 | O=C(/C=C/c1ccccc1)c1cc(N2CCOCC2)n2nc(-c3ccncc3)cc2n1 [Compound 114, 1-(7-morpholino-2-(pyridin-4-yl)pyrazolo[1,5-a]pyrimidin-5-yl)-3-phenylprop-2-en-1-one] | 1000 to 10000
19 | CC(C)(C)OC(=O)NC(=N)c1cc(N2CCOCC2)n2nc(-c3ccncc3)cc2n1 [Compound 115, tert-butyl imino(7-morpholino-2-(pyridin-4-yl)pyrazolo[1,5-a]pyrimidin-5-yl)methylcarbamate] | 100 to 1000
20 | CC(C)(C)OC(=O)N1CCN(c2cc(N3CCOCC3)n3nc(-c4ccncc4)cc3n2)C(Cc2ccccc2)C1 (stereo not drawn) [Compound 116, tert-butyl 3-benzyl-4-(7-morpholino-2-(pyridin-4-yl)pyrazolo[1,5-a]pyrimidin-5-yl)piperazine-1-carboxylate] | 1000 to 10000
21 | c1ccc(CC2CNCCN2c2cc(N3CCOCC3)n3nc(-c4ccncc4)cc3n2)cc1 (stereo not drawn) [Compound 117, 4-(5-(2-benzylpiperazin-1-yl)-2-(pyridin-4-yl)pyrazolo[1,5-a]pyrimidin-7-yl)morpholine] | 1000 to 10000
22 | CN1CCN(c2cc(N3CCOCC3)n3nc(-c4ccncc4)cc3n2)C(Cc2ccccc2)C1 (stereo not drawn) [Compound 118, 4-(5-(2-benzyl-4-methylpiperazin-1-yl)-2-(pyridin-4-yl)pyrazolo[1,5-a]pyrimidin-7-yl)morpholine] | 1000 to 10000
23 | c1ccc(N2CC(c3cc(N4CCOCC4)n4nc(-c5ccncc5)cc4n3)C2)cc1 [Compound 121, 4-(5-(1-phenylazetidin-3-yl)-2-(pyridin-4-yl)pyrazolo[1,5-a]pyrimidin-7-yl)morpholine] | > 10000
24 | c1ccc(CN2CCCC2c2cc(N3CCOCC3)n3nc(-c4ccncc4)cc3n2)cc1 (stereo not drawn) [Compound 124, 4-(5-(1-benzylpyrrolidin-2-yl)-2-(pyridin-4-yl)pyrazolo[1,5-a]pyrimidin-7-yl)morpholine] | 1000 to 10000
25 | Cc1cccc(C(=O)COc2cc(N3CCOCC3)n3nc(-c4ccncc4)cc3n2)c1 [Compound 125, 2-((7-morpholino-2-(pyridin-4-yl)pyrazolo[1,5-a]pyrimidin-5-yl)oxy)-1-(m-tolyl)ethan-1-one] | 1000 to 10000
26 | CNC(COc1cc(N2CCOCC2)n2nc(-c3ccncc3)cc2n1)c1cccc(C)c1 (stereo not drawn) [Compound 126, N-methyl-2-((7-morpholino-2-(pyridin-4-yl)pyrazolo[1,5-a]pyrimidin-5-yl)oxy)-1-(m-tolyl)ethan-1-amine] | 1000 to 10000
27 | c1ccc(-c2nsc(-c3cc(N4CCOCC4)n4nc(-c5ccncc5)cc4n3)n2)cc1 [Compound 127, 4-(5-(3-phenyl-1,2,4-thiadiazol-5-yl)-2-(pyridin-4-yl)pyrazolo[1,5-a]pyrimidin-7-yl)morpholine] | 10 to 100
28 | c1ccc(-c2nc(-c3cc(N4CCOCC4)n4nc(-c5ccncc5)cc4n3)ns2)cc1 [Compound 128, 4-(5-(5-phenyl-1,2,4-thiadiazol-3-yl)-2-(pyridin-4-yl)pyrazolo[1,5-a]pyrimidin-7-yl)morpholine] | 10 to 100
29 | c1ccc(-c2nnc(-c3cc(N4CCOCC4)n4nc(-c5ccncc5)cc4n3)o2)cc1 [Compound 130, 4-(5-(5-phenyl-1,3,4-oxadiazol-2-yl)-2-(pyridin-4-yl)pyrazolo[1,5-a]pyrimidin-7-yl)morpholine] | 1000 to 10000
30 | c1ccc(-c2cc(N3CCOCC3)n3nc(-c4ccncc4)cc3n2)nc1 [Compound 132] | 100 to 1000
31 | CCOC(=O)Cc1cc(N2CCOCC2)n2nc(-c3ccncc3)cc2n1 [Compound 133, ethyl 2-(7-morpholino-2-(pyridin-4-yl)pyrazolo[1,5-a]pyrimidin-5-yl)acetate] | 1000 to 10000
32 | O=C1COC(c2ccccc2)CN1c1cc(N2CCOCC2)n2nc(-c3ccncc3)cc2n1 (stereo not drawn) [Compound 135, 4-(7-morpholino-2-(pyridin-4-yl)pyrazolo[1,5-a]pyrimidin-5-yl)-6-phenylmorpholin-3-one] | 1000 to 10000
33 | CN1CC(=O)N(c2cc(N3CCOCC3)n3nc(-c4ccncc4)cc3n2)CC1c1ccccc1 (stereo not drawn) [Compound 136, 4-methyl-1-(7-morpholino-2-(pyridin-4-yl)pyrazolo[1,5-a]pyrimidin-5-yl)-5-phenylpiperazin-2-one] | 1000 to 10000
